Where “and” joins values, the source holds several entries; their conditions need not be identical. Equal entries are not always repeated. Where two headings read alike, the source gives them in different places.
Columns and labels:
human CTSL = molecular target: T1, human CTSL (Homo sapiens, UniProt P07711); assay: FRET enzymatic inhibition assay of CTSL (IC50 measurement); format: biochemical
T1 construct: made in house

human CTSB = molecular target: T2, human CTSB (Homo sapiens, UniProt P07858); assay: biochemical
T2 construct: […]; made in house

[1] = system: SARS-CoV-2-S pseudotyped virus Omicron BA.2.12.1; assay: microbe, parasite or virus in culture; format: cell-based
[2] = system: SARS-CoV-2-S pseudotyped virus Omicron BA.4/BA.5; assay: microbe, parasite or virus in culture; format: cell-based
Calu-3 cells = details: rep1-rep3
in vitro = details: human
[3] = substrate Cbz-Phe-Arg-AMC, pH 5.5, mean ± SD, four replicates
[4] = Severe acute respiratory syndrome coronavirus 2, Huh-7, read-out: Antiviral efficacy EC50 (95% CI)

T1 sequence (P07711 114-333): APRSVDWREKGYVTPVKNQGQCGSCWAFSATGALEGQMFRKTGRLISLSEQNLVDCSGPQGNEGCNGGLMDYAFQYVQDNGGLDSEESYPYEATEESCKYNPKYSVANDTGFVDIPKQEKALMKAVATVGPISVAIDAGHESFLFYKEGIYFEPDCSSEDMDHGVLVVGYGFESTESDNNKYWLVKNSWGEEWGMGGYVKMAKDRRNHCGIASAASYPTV

NC(N)=Nc1ccc(C(=O)OCCN2CCN(C(=O)N[C@@H](Cc3ccccc3)C(=O)N[C@H](/C=C/S(=O)(=O)c3ccccc3)CCc3ccccc3)CC2)cc1 [212-148]
inhibition at 0.0625 µM (human CTSL; 212-148 62.5 nM, Fig. 5c): 100%
Inhibition: CTSL (human CTSL; 212-148 125 nM, Fig. 5c): 100.33% and 100.36% and 100.30%
inhibition at 0.125 µM (human CTSL; 212-148 125 nM, Fig. 5c): 100%
Inhibition: CTSL (human CTSL; 212-148 250 nM, Fig. 5c): 99.87% and 99.66% and 100.24%
inhibition at 0.25 µM (human CTSL; 212-148 250 nM, Fig. 5c): 100%
Inhibition: CTSL (human CTSL; 212-148 500 nM, Fig. 5c): 100.03% and 100.68% and 99.61%
inhibition at 0.5 µM (human CTSL; 212-148 500 nM, Fig. 5c): 99.9%
Inhibition: CTSL (human CTSL; 212-148 1000 nM, Fig. 5c): 100.34% and 99.76% and 100.32%
inhibition at 1 µM (human CTSL; 212-148 1000 nM, Fig. 5c): 99.5%
Inhibition: CTSL (human CTSL; 212-148 2000 nM, Fig. 5c): 100.56% and 99.97%
inhibition at 2 µM (human CTSL; 212-148 2000 nM, Fig. 5c): 99%
IC50 (human CTSL; [3]): 2.13 nM
Inhibition: CTSB (human CTSB; 212-148 0.12207 nM, Fig. 5c): 8.76% and 9.57% and 12.06%
inhibition at 0.00012207 µM (human CTSB; 212-148 0.12207 nM, Fig. 5c): 9.32%
Inhibition: CTSB (human CTSB; 212-148 0.976562 nM, Fig. 5c): 5.21% and 6.50% and 2.50% and 12.34%
Inhibition: CTSB (human CTSB; 212-148 1.95312 nM, Fig. 5c): 10.95% and 10.99% and 12.44%
inhibition at 0.00195312 µM (human CTSB; 212-148 1.95312 nM, Fig. 5c): 20.7%
Inhibition: CTSB (human CTSB; 212-148 7.8125 nM, Fig. 5c): 6.62% and 15.92% and 9.45% and 14.93%
Inhibition: CTSB (human CTSB; 212-148 15.625 nM, Fig. 5c): 29.27% and 18.56% and 15.75%
inhibition at 0.015625 µM (human CTSB; 212-148 15.625 nM, Fig. 5c): 20.2%
Inhibition: CTSB (human CTSB; 212-148 31.25 nM, Fig. 5c): 38.89% and 26.87% and 33.63%
inhibition at 0.03125 µM (human CTSB; 212-148 31.25 nM, Fig. 5c): 31.5%
Inhibition: CTSB (human CTSB; 212-148 62.5 nM, Fig. 5c): 49.58% and 58.40% and 54.67%
inhibition at 0.0625 µM (human CTSB; 212-148 62.5 nM, Fig. 5c): 52.1%
Inhibition: CTSB (human CTSB; 212-148 125 nM, Fig. 5c): 77.49% and 76.59% and 75.86%
inhibition at 0.125 µM (human CTSB; 212-148 125 nM, Fig. 5c): 76.8%
Inhibition: CTSB (human CTSB; 212-148 250 nM, Fig. 5c): 92.13% and 95.19% and 101.10%
inhibition at 0.25 µM (human CTSB; 212-148 250 nM, Fig. 5c): 95.4%
Inhibition: CTSB (human CTSB; 212-148 500 nM, Fig. 5c): 95.97% and 101.09% and 103.70%
inhibition at 0.5 µM (human CTSB; 212-148 500 nM, Fig. 5c): 101%
Inhibition: CTSB (human CTSB; 212-148 1000 nM, Fig. 5c): 100.47% and 101.20% and 101.53%
inhibition at 1 µM (human CTSB; 212-148 1000 nM, Fig. 5c): 98.8%
Inhibition: CTSB (human CTSB; 212-148 2000 nM, Fig. 5c): 98.63% and 99.08% and 103.05%
inhibition at 2 µM (human CTSB; 212-148 2000 nM, Fig. 5c): 102%
IC50 (human CTSB; [3]): 64.1 nM
Inhibition: BA.2.12.1/Huh-7 ([1]; 212-148 0.0002 μM, Fig. 5d): 25.45% and 41.55%
Inhibition: BA.2.12.1/Huh-7 ([1]; 212-148 0.002 μM, Fig. 5d): 72.96% and 74.23%
Inhibition: BA.2.12.1/Huh-7 ([1]; 212-148 0.02 μM, Fig. 5d): 77.85% and 80.42%
Inhibition: BA.2.12.1/Huh-7 ([1]; 212-148 0.2 μM, Fig. 5d): 82.33% and 85.32%
Inhibition: BA.2.12.1/Huh-7 ([1]; 212-148 2 μM, Fig. 5d): 85.90% and 86.81%
Inhibition: BA.2.12.1/Huh-7 ([1]; 212-148 20 μM, Fig. 5d): 92.77% and 92.47%
inhibition at 0.0002 µM ([1]; Severe acute respiratory syndrome coronavirus 2, Huh-7, 120 h, 212-148 0.0002 μM, Fig. 5d): 26.2%
inhibition at 0.002 µM ([1]; Severe acute respiratory syndrome coronavirus 2, Huh-7, 120 h, 212-148 0.002 μM, Fig. 5d): 70.2%
inhibition at 0.02 µM ([1]; Severe acute respiratory syndrome coronavirus 2, Huh-7, 120 h, 212-148 0.02 μM, Fig. 5d): 75.2%
inhibition at 0.2 µM ([1]; Severe acute respiratory syndrome coronavirus 2, Huh-7, 120 h, 212-148 0.2 μM, Fig. 5d): 82.3%
inhibition at 2 µM ([1]; Severe acute respiratory syndrome coronavirus 2, Huh-7, 120 h, 212-148 2 μM, Fig. 5d): 86.3%
inhibition at 20 µM ([1]; Severe acute respiratory syndrome coronavirus 2, Huh-7, 120 h, 212-148 20 μM, Fig. 5d): 91.6%
EC50 [1, 4]: 0.4 nM
Inhibition: BA.4.5/Huh-7 ([2]; 212-148 2e-5 μM, Fig. 5d): 20.50% and 13.32% and 20.61%
Inhibition: BA.4.5/Huh-7 ([2]; 212-148 0.0002 μM, Fig. 5d): 32.55% and 30.98%
Inhibition: BA.4.5/Huh-7 ([2]; 212-148 0.002 μM, Fig. 5d): 62.17% and 52.89%
Inhibition: BA.4.5/Huh-7 ([2]; 212-148 0.02 μM, Fig. 5d): 82.60% and 83.49%
Inhibition: BA.4.5/Huh-7 ([2]; 212-148 0.2 μM, Fig. 5d): 89.43% and 91.48%
Inhibition: BA.4.5/Huh-7 ([2]; 212-148 2 μM, Fig. 5d): 89.92% and 91.92%
Inhibition: BA.4.5/Huh-7 ([2]; 212-148 20 μM, Fig. 5d): 95.01% and 96.39%
inhibition at 0.0002 µM ([2]; Severe acute respiratory syndrome coronavirus 2, Huh-7, 120 h, 212-148 0.0002 μM, Fig. 5d, read-out: Inhibition: BA.4.5/Huh-7): 43.8%
inhibition at 0.002 µM ([2]; Severe acute respiratory syndrome coronavirus 2, Huh-7, 120 h, 212-148 0.002 μM, Fig. 5d, read-out: Inhibition: BA.4.5/Huh-7): 63.5%
inhibition at 0.02 µM ([2]; Severe acute respiratory syndrome coronavirus 2, Huh-7, 120 h, 212-148 0.02 μM, Fig. 5d, read-out: Inhibition: BA.4.5/Huh-7): 84.4%
inhibition at 0.2 µM ([2]; Severe acute respiratory syndrome coronavirus 2, Huh-7, 120 h, 212-148 0.2 μM, Fig. 5d, read-out: Inhibition: BA.4.5/Huh-7): 86.9%
inhibition at 2 µM ([2]; Severe acute respiratory syndrome coronavirus 2, Huh-7, 120 h, 212-148 2 μM, Fig. 5d, read-out: Inhibition: BA.4.5/Huh-7): 86.8%
inhibition at 20 µM ([2]; Severe acute respiratory syndrome coronavirus 2, Huh-7, 120 h, 212-148 20 μM, Fig. 5d, read-out: Inhibition: BA.4.5/Huh-7): 92.5%
EC50 [2, 4]: 0.4 nM
Cytotoxicity (Calu-3 cells; 0.15 μM): 2.30% and 2.49% and 2.76%
Cytotoxicity (Calu-3 cells; 0.46 μM): 5.33% and 5.48% and 5.69%
Cytotoxicity (Calu-3 cells; 4.1 μM): -1.17% and -0.96% and -0.67%
Cytotoxicity (Calu-3 cells; 12.3 μM): 0.51% and 0.76% and 1.02%
Cytotoxicity (Calu-3 cells; 111.1 μM): -1.18% and -0.95% and -0.65%
Cytotoxicity (Calu-3 cells; 333.3 μM): 32.20% and 32.35% and 32.61%
Cytotoxicity (Calu-3 cells; 1000 μM): 84.78% and 84.85% and 84.92%
CC50 (in vitro): 347000 nM

From paper PMC10663540, “Structure-based discovery of dual pathway inhibitors for SARS-CoV-2 entry” (Nature Communications, 2023)
